Results taken from patent US9649382B2, “Topical bioadhesive formulations” (CAMURUS AB, priority 2005, dated 2017).
Counter-ions that a name gives are not always drawn.

What was measured:
[1] = SAXD nanostructure of lipid compositions hydrated with PBS; type: physicochemical; conditions: for API concentration at which the cubic Fd3m structure is not significantly altered / API concentration at which the cubic structure is completely lost / API concentration at which transformation into L2 solution begins: SPC/GDO 35/65, lipid/EtOH/PG 85/10/5, PBS
Method: Aqueous phase behavior was studied by hydrating non-aqueous lipid formulations with phosphate buffered saline (0.01 M phosphate buffer with 0.137 M NaCl and 0.002 M KCl, pH 7.4) at various weight ratios: 2:1, 1:1, 1:2 and 1:9. After brief vortexing, samples were left to equilibrate at room temperature for 1 week before X-ray diffraction measurements.
The nanostructure of hydrated lipid samples was studied using synchrotron small angle X-ray diffraction (SAXD). Measurements were performed at the 1911 beam-line at MAX-lab (Lund University, Sweden), using a Pilatus 1M 165 mm CCD detector with a resolution of 981×1043 pixels at a pixel size of 0.172 mm. The lipid samples were mounted between kapton windows in a steel sample holder at a sample-to-detector distance of 1312 mm. Diffractograms were recorded at the X-ray wavelength of 0.91 Å and a beam size of 0.25×0.25 mm (full width at the half maximum) at the sample. Temperature control within 0.1° C. was achieved using computer controlled Julabo heating circulator F12-MC (Julabo Labortechnik GMBH, Seelbach, Germany). When temperature effects were studied, the experiments were performed successively at 25° C., 37° C. and 42° C. with a 3-min exposure time at each temperature and a wait of 10 minutes between temperature steps. The resulting CCD images were integrated and analysed using the Fit2D software provided by Dr. A. Hammersley (http://www.esrf.fr/computing/scientific/FIT2D). Silver behanate calibrated sample-to-detector distance and detector positions were used.

[2] = Depot injected into rat periodontal pocket; type: in vivo; conditions: PC/GDO/EtOH/Gardol (34/51/10/5) injected into rat periodontal pocket
Method: In order to treat periodontitis or perimplantitis an antibacterial formulation is injected in the periodontal pocket, and a prolonged effect of the formulation is normally desired. […] The injected composition is observed to transform from the low viscous formulation, and which initially spreads out to fill voids, to form a solid mass by uptake of gingival fluids. An antibacterial depot system is thus provided.
This formulation is injected into the rat periodontal pocket.
Gardol is observed to remain at clinically effective levels in the GCF of the periodontal pockets for a prolonged period (several days).

[3] = Surface gel formation of chlorhexidine depots in situ; type: physicochemical; conditions: applied as a liquid, bioadhesive gel in situ
Description: For topical bioadhesive, controlled release products for intraoral (including buccal & periodontal) administration; • i. benzydamine (local analgesic, anti inflammatory) or other local analgesic, analgesic, anti inflammatory, anti bacterial, anti fungal or combination thereof. Composition provides sustained effect at intraoral mucosa, in particular damaged, sensitised, infected mucosa e.g. in patients suffering from oral mucositis (induced by e.g. chemo- and radiotherapy). In particular for treatment of oral mucositis. • ii. tramadol (analgesic). […] Particularly for long acting effect in periodontal pocket.

[4] = stated as clinically effective level; cited from earlier work

## CN(C)CCCOc1nn(Cc2ccccc2)c2ccccc12 [BZD, benzydamine]
[1]; 3 wt % BZD, SPC/GDO 35/65
  phase formed at lipid formulation to PBS weight ratio of 1:1: cubic Fd3m LC phase is formed
[1]; 3 wt % of BZD, 25° C.
  effect on Fd3m LC phase at SPC/GDO weight ratio of 30/70: transforms into L2 solution
[1]
  API concentration at which the cubic Fd3m structure is not significantly altered: up to 3.5 wt %

## CN1C2CCCC1CC(NC(=O)c1nn(C)c3ccccc13)C2 (stereo not shown) [GRN, Granisetron hydrochloride]
[1]
  API concentration at which the cubic structure is completely lost: about 1.5 wt %
  API concentration at which transformation into L2 solution begins: 0.8 wt %

## CCCCCCCCCCCC(=O)N(C)CC(=O)[O-].[Na+] [Gardol, Glycine, N-methyl-N-(1-oxododecyl)-, sodium salt]
[2]
  time Gardol remains at clinically effective levels in the GCF of the periodontal pockets: several days

## CCN(CC)CC(=O)Nc1c(C)cccc1C [LID, Lidocaine]
[1]
  API concentration at which the cubic Fd3m structure is not significantly altered: ≤ 1.7 wt %
  API concentration at which the cubic structure is completely lost: lower than 3 wt %
  API concentration at which transformation into L2 solution begins: 2 wt %

## CC1(C)O[C@@H]2C[C@H]3[C@@H]4CCC5=CC(=O)C=C[C@]5(C)[C@@]4(F)[C@@H](O)C[C@]3(C)[C@]2(C(=O)CO)O1 [TCA, triamcinolone acetonide]
[1]; SPC/GDO 35/65, lipid/EtOH/PG 85/10/5
  effect on formation and lattice dimensions of the cubic structure: very little effect
[1]
  API concentration at which the cubic Fd3m structure is not significantly altered: ≥ 5 wt %

## N=C(NCCCCCCNC(=N)NC(=N)Nc1ccc(Cl)cc1)NC(=N)Nc1ccc(Cl)cc1.O=C(O)[C@H](O)[C@@H](O)[C@H](O)[C@H](O)CO.O=C(O)[C@H](O)[C@@H](O)[C@H](O)[C@H](O)CO [chlorhexidine gluconate]
[3]
  Surface gel formation time: between 1 second and 5 min

## chlorhexidine
[4]
  MIC: 125 µg/mL
